Experimental data reported in PubChem BioAssay (NCI).
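Method: 48-hour compound exposure of cells in 96-well plates, five concentrations, linear interpolation of endpoints. The concentration for full growth arrest is given as TGI.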

Legend:
Experiment in all cases: DTP human tumour cell line panel, 48 h
786-0 renal = test system: 786-0 renal
HOP-18 NSCLC = test system: HOP-18 NSCLC
SF-539 CNS = test system: SF-539 CNS
M19-MEL melanoma = test system: M19-MEL melanoma
SNB-78 CNS = test system: SNB-78 CNS
HOP-92 NSCLC = test system: HOP-92 NSCLC
TK-10 renal = test system: TK-10 renal
NCI-H226 lung = test system: NCI-H226 lung
SR leukemia = test system: SR leukemia

Measured: TGI

C=CCOCCCC(=O)C(=[N+]=[N-])C(=O)OC
> 100 µM: all assays above
